In data set [1] the target is AChE (Electrophorus electricus) (Electrophorus electricus, UniProt O42275). The data set is described as follows: AChE inhibition, Ellman's assay. The note with it: Electrophorus electricus, pH 8.0; read-out: IC50 AChE. The data set is classed as biochemical. The procedure:
(§1) For both families of enzymes used herein (glycosidases and cholinesterases), stock solutions of the inhibitors were prepared in DMSO; DMSO content was kept at 5% (V/V) for glycosidases and 1.25% (V/V) for cholinesterases. Enzymes were properly dissolved in water in a concentration in which the rate of the reaction when using [S] = 4 × KM is in the range 0.12–0.15 Abs/min. In both kinds of enzymes, an initial screening at 100 µM inhibitor concentration was performed, using the following substrate concentrations: [S] = 0.25 mM for α-glucosidase (Saccharomyces cerevisiae), 4.0 mM for β-glucosidase (almonds), 0.60 mM for α-galactosidase (green coffee beans), 0.51 mM for β-galactosidase (Escherichia coli), 1.5 mM for β-galactosidase (Aspergillus Oryzae), 0.12 mM for AChE (Electrophorus electricus), 0.11 mM for BuChE (equine serum). […] Each assay was run in duplicate.
(§2) For cholinesterases, minor modifications on Ellman’s assay[31] were performed. The activity was measured in PS cuvettes containing […] (pH 8.0), 0.88 mM DTNB, and substrate (acetyl- and butyryl-thiocholine iodides for AChE and BuChE, respectively), The formation of the chromophore was monitored at 405 nm over a time of 125 s.
(§3) For strong inhibitors, the mode of inhibition was determined using the Cornish–Bowden method, which involves the use of two different plots: 1/v vs. [I] (Dixon plot) and [S]/v vs. [I]. For the calculation of kinetic parameters (KM, Vmax) a nonlinear regression analysis (least squares fit, GraphPad Prism 8.01) was used. Data are expressed as the mean ± SD.
(§4) Derivatives 11 and 12 were tested also against AChE (Electrophorus electricus) and BuChE (equine serum), as recognised models for human cholinesterases due to their close structural resemblance. For that purpose, Ellman’s colorimetric assay was used; this is an indirect test in which acetyl and butyryl thiocholine iodides are used as model substrates, which upon interaction with the enzyme release thiocholine, which in turn reacts with the chromogen reagent 5,5′-dithiobis(2-nitrobenzoic acid (DTNB) to give 2-nitro-5-mercaptobenzoate (at pH 8.0). The monitoring of the latter at 405 nm furnishes the kinetic parameters.
(In general: In Ellman's method for cholinesterases, released thiocholine reacts with DTNB.)

The target in data set [2] is T1, α-glucosidase (Saccharomyces cerevisiae) (Saccharomyces cerevisiae, UniProt P53341).
T1 construct: purchased
T1 sequence (P53341 whole entry): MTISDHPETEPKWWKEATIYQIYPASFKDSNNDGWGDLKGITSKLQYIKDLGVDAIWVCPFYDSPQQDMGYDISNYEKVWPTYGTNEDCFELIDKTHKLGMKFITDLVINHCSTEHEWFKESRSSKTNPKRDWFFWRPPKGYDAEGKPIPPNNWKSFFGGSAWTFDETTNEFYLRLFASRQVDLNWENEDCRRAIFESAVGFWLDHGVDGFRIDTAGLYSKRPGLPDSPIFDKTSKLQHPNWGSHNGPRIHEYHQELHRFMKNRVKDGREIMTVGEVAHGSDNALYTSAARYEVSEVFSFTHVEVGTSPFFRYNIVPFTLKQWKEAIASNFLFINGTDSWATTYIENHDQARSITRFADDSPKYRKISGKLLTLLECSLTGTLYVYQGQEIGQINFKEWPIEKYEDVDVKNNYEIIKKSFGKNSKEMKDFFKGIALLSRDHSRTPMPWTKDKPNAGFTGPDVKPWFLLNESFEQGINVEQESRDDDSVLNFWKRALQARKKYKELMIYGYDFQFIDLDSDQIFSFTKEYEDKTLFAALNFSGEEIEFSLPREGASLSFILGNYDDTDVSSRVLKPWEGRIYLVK
The data set is described as follows: α-Glucosidase inhibition (p-nitrophenyl glycoside substrate). The data set is classed as biochemical. The procedure: as §1
(§5) Glycosidase assays were accomplished using the methodology reported by Bols and co-workers[30]. Each set of experiments is prepared in PS cuvettes using 0.1 M phosphate buffer (pH 6.8) and the corresponding o- or p-nitrophenyl glycopyranosides as substrates. Reactions were monitored at 25 °C by following the formation of the corresponding nitrophenolates at 400 nm (glucosidases and α-galactosidase) or 420 nm (β-galactosidases) over a time of 125 s.
(Dixon plot) and [S]/v vs. [I]. For the calculation of kinetic parameters (KM, Vmax) a nonlinear regression analysis (least squares fit, GraphPad Prism 8.01) was used. Data are expressed as the mean ± SD.
(§6) Assessment of the inhibitory capacity against glycosidases was accomplished using the methodology reported by Bols and co-workers[30]. p-Nitrophenyl glycosides (o- for β-galactosidases) were used as model substrates, and the release of the corresponding p-nitrophenolates at pH 6.8 was monitored spectrophotometrically (λmax = 400 or 420 nm for p- or o-nitrophenolates, respectively).

The subject of data set [3] is BJ-hTERT human fibroblasts. The data set is described as follows: Antiproliferative SRB assay, BJ-hTERT. The data set is classed as cell-based. The note with it: Fibroblast, 48 h, non-tumour fibroblasts. In general terms: The SRB assay estimates cell density from bound dye.
Procedure: We selected the human neuroblastoma cell line SH-SY5Y and the fibroblast cell line BJ-hTERT to evaluate the antiproliferative activity of the compounds. The tests were performed in 96-well plates using the SRB assay[32] with the following specifications. Cell seeding densities were 5000 cells/well for SH-SY5Y and 7000 cells/well for BJ-hTERT. Drug incubation times were 48 h. The optical density of each well was measured at 530 (primary) and 620 (secondary) nm.
To analyse the potential cytotoxicity of title compounds, their antiproliferative activity was measured.
For a further data set, the system named is β-glucosidase (almonds). The experiment in a line: β-Glucosidase inhibition (p-nitrophenyl glycoside substrate). The data set is classed as biochemical. The note with it: for Mode of inhibition β-Glucosidase: Cornish–Bowden method; for IC50: almond enzyme, pH 6.8, 25 °C; for Ki: binding to free enzyme, read-out: Kia β-Glucosidase. The procedure:
as §1, §5, §3, §6

Data set [4] deals with T2, β-galactosidase (Aspergillus Oryzae) (Aspergillus oryzae, UniProt Q2UCU3).
T2 construct: purchased
T2 sequence (Q2UCU3 19-1005): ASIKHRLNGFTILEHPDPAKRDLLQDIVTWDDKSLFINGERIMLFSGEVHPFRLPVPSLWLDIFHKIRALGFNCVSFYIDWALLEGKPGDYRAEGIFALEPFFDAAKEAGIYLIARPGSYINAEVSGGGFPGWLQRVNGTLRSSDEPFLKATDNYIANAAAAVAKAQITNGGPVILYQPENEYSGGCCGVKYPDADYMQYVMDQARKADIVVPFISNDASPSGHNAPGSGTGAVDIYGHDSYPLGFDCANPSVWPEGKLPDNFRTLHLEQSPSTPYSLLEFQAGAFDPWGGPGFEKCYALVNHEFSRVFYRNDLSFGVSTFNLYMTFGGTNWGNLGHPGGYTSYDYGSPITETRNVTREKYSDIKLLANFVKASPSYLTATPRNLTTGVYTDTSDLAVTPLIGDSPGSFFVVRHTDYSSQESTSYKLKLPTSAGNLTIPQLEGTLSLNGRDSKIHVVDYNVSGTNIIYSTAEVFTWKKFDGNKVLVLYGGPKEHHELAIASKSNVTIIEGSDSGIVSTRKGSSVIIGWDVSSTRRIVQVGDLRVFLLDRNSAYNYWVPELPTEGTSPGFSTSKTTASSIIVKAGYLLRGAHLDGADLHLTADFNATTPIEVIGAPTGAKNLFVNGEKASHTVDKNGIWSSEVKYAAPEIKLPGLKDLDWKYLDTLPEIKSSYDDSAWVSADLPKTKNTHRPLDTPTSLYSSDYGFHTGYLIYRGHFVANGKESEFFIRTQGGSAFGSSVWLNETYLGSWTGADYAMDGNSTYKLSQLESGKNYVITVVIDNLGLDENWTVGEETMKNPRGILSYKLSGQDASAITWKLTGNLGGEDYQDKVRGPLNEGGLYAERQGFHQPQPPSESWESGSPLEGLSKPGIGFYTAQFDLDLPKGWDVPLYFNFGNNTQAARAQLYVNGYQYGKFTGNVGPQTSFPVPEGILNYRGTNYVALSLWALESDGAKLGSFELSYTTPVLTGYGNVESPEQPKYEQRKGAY
The data set is described as follows: β-Galactosidase (A. oryzae) inhibition. The data set is classed as biochemical. On the procedure: as §1, §5, §6

Data set [5] concerns the target T3, α-galactosidase (green coffee beans) (Coffea arabica, UniProt Q42656).
T3 construct: purchased; host or cells: green coffee beans
The experiment in a line: α-Galactosidase inhibition. In kind it is biochemical. The procedure:
as §1, with “Enzymes” for “For both families of enzymes used herein (glycosidases and cholinesterases), stock solutions of the inhibitors were prepared in DMSO; DMSO content was kept at 5% (V/V) for glycosidases and 1.25% (V/V) for cholinesterases. Enzymes”
Glycosidase assays were accomplished using the methodology reported by Bols and co-workers[30]. Each set of experiments is prepared in PS cuvettes using 0.1 M phosphate buffer (pH 6.8) and the corresponding o- or p-nitrophenyl glycopyranosides as substrates.
as §6

The target of data set [6] is T4, β-galactosidase (Escherichia coli) (Escherichia coli, UniProt P00722).
T4 construct: purchased
T4 sequence (P00722 2-1024 limits assumed): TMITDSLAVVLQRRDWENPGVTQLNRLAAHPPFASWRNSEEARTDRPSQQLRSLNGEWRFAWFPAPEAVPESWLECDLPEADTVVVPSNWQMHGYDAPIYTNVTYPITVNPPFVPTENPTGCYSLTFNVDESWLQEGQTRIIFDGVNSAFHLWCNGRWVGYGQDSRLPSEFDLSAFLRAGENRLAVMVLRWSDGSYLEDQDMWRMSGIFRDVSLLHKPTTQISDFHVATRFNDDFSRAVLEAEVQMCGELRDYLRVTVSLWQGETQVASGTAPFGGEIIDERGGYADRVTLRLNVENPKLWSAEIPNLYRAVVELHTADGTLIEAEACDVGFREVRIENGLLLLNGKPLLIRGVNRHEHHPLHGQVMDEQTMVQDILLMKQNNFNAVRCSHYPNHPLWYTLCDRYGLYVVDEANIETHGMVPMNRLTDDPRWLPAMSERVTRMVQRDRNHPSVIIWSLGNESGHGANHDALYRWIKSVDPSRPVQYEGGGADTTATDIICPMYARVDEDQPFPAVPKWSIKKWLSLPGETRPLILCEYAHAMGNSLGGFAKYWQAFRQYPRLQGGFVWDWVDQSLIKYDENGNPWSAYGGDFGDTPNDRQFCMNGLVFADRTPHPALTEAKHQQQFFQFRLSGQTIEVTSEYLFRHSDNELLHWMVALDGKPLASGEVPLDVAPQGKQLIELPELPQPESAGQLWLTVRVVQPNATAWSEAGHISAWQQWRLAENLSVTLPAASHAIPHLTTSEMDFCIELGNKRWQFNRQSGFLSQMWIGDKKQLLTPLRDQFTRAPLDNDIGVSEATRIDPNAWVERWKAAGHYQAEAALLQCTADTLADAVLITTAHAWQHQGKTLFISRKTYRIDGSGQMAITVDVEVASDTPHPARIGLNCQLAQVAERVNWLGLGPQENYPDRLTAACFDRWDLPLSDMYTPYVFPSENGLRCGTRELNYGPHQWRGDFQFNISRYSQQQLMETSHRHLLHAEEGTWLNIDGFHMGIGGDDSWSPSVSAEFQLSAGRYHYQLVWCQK
The data set is described as follows: β-Galactosidase (E. coli) inhibition. In kind it is biochemical. The procedure:
as §1, §5, §6

A further data set addresses T5, BuChE (equine serum) (Equus caballus, UniProt P81908).
T5 construct: 0.11 mM for BuChE (equine serum); from tissue; host or cells: equine serum
The experiment in a line: BuChE inhibition, Ellman's assay. The data set is classed as biochemical. The note with it: equine serum, pH 8.0; read-out: IC50 BuChE. On the procedure: as §1, §2, §3, §4

For data set [7] the following is noted: cited from earlier work.

T5 sequence (P81908 whole entry): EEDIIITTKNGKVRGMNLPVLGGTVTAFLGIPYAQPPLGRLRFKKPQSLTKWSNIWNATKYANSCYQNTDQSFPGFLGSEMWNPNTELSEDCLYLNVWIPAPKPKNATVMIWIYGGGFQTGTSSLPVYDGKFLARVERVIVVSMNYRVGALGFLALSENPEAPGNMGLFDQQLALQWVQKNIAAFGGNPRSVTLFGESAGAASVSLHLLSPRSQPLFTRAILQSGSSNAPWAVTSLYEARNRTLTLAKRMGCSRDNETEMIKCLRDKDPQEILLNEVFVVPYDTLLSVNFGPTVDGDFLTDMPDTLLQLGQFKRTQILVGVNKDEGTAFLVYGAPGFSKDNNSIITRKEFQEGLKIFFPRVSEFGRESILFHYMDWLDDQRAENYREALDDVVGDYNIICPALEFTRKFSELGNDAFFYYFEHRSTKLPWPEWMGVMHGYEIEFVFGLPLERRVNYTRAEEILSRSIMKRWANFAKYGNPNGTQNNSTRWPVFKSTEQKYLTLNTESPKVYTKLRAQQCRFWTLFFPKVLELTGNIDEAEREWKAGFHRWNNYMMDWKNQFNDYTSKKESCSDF
T3 sequence (Q42656 16-378): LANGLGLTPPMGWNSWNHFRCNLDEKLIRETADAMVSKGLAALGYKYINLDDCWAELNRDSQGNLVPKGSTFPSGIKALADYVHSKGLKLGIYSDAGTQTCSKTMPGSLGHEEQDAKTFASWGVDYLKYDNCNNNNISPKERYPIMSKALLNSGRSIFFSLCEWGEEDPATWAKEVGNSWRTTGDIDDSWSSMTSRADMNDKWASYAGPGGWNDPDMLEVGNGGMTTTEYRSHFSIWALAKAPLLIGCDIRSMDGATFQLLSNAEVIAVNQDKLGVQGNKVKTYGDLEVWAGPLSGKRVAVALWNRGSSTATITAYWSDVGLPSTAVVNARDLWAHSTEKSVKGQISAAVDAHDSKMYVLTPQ
Sequence of AChE (Electrophorus electricus) (O42275 24-633): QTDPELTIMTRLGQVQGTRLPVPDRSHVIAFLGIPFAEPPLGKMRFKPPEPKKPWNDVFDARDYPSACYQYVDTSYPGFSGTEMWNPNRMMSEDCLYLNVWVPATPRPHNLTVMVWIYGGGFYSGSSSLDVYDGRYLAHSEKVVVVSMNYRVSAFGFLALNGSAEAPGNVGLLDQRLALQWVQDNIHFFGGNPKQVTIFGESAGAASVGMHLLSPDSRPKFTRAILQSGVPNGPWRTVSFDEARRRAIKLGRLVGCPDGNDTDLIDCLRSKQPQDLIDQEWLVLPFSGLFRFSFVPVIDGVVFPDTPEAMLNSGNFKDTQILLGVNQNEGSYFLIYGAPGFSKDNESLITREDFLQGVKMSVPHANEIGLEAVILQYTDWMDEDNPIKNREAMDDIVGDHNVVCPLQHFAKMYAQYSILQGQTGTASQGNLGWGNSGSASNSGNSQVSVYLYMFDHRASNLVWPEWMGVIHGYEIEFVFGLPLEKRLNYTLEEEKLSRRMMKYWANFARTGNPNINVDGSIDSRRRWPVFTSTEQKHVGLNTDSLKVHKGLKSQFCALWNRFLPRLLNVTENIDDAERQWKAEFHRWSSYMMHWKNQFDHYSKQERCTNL

For `OC[C@@H]1[C@@H](O)[C@H](O)[C@@H](O)CN1CCCCCCOCCc1ccc(O)c(O)c1` [Compound 11d], the IC50 (commonly the point on the concentration scale where inhibition reaches its midpoint) in data set [1] was > 100 µM; in data set [2], > 100 µM; against β-glucosidase (almonds), 15 µM; in data set [4], > 100 µM; in [5] it was > 100 µM; in [6], > 100 µM. For the same compound, the half-inhibitory concentration (IC50) on BuChE (equine serum) was 76 µM. Besides, the GI50 (usually the concentration giving 50% growth inhibition) in data set [3] was 39 ± 5 µM. The “Mode of inhibition β-Glucosidase” value in the data set on β-glucosidase (almonds) is “Competitive”. In addition, the Ki at β-glucosidase (almonds) worked out at 11 µM.

For the compound `COc1ccc(CCOCCCCCN2C[C@H](O)[C@@H](O)[C@H](O)[C@H]2CO)cc1` [Compound 12c], the half-maximal inhibitory concentration (IC50) was > 100 µM in data set [1]; > 100 µM in data set [2]; 25 µM at β-glucosidase (almonds); > 100 µM in [4]; > 100 µM in data set [5]; > 100 µM in [6]. The IC50 on BuChE (equine serum) is > 100 µM. The “Mode of inhibition β-Glucosidase” value with β-glucosidase (almonds) is listed as “Competitive”. At β-glucosidase (almonds), the Ki turned out to be 14 ± 6 µM.

Consider `CCCCN1C[C@H](O)[C@@H](O)[C@H](O)[C@H]1CO` [N-butyl-DNJ, N-butyl-1-deoxynojirimycin], for which, in [7], the pKa (usually the pH at which an ionisable group is half protonated) is given as 7.1.

On to `CCCCCCCCCN1C[C@H](O)[C@@H](O)[C@H](O)[C@H]1CO` [N-nonyl-DNJ], for which, in [7], the pKa is on record as 6.7.

The values above are taken from publication PMC7717699, “Tuning the activity of iminosugars: novel N-alkylated deoxynojirimycin derivatives as strong BuChE inhibitors” (Journal of Enzyme Inhibition and Medicinal Chemistry, 2020).
